{"source": "patent US5464617A", "about": "“β-lactam compounds” (Hoffmann-La Roche Inc., priority 1994, dated 1995)", "key": {"[1]": {"system": "Citrobacter freundii 1982", "test": "MIC in vitro of a 1:4 combination of ceftriaxone with a compound of formula I (Test D)", "type": "cell-based", "settings": "for MIC C. freundii 1982 (D): test D", "protocol": "The minimum inhibitory concentration in vitro ([…]) of a 1:4 combination of ceftriaxone with a compound of formula I against Citrobacter freundii 1982 was measured and compiled in Table 2 hereinafter."}, "[2]": {"system": "E. coli 1346", "test": "Antibacterial activity of the products per se, serial dilution method in liquid medium (Test E)", "type": "cell-based", "settings": "product per se; for MIC E. coli 1346 (E): test E", "excerpt": "The antibacterial activity of the products per se is illustrated on the basis of Table 3 hereinafter, the minimum inhibitory concentration […] in vitro against E. coli 1346 being determined using the serial dilution method in liquid medium: […]"}, "[3]": {"settings": "Table 4, 1:4 combination of ceftriaxone with the compound"}}, "note": "Counter-ions that a name gives are not always drawn.", "data": [{"smiles": "NC(=O)OCC1=C(C(=O)O)N2C(=O)[C@@H]3[C@H]2[C@H](C1)CN3C(=O)CNc1ccccc1", "note": "[58(h), (1aS,3aR,6bR)-5-Carbamoyloxymethyl-1-oxo-2-phenylaminoacetyl-1a,2,3,3a,4,6b-hexahydro-1 H-2,6a-diazacyclobut[cd]indene-6-carboxylic acid sodium salt]", "values": [{"measurement": "MIC C. freundii 1982 (D)", "setting": "[1]; [3]", "value": 1, "unit": "µg/mL"}, {"measurement": "MIC E. coli 1346 (E)", "setting": "[2]; Table 4", "value": 32, "unit": "µg/mL"}]}, {"smiles": "O=C(NC1CC1)OCC1=C(C(=O)O)N2C(=O)[C@H]3NC[C@@H](C1)[C@H]32", "note": "[Example 93, (1aS,3aR,6bR)-5-Cyclopropylcarbamoyloxymethyl-1-oxo-1a,2,3,3a,4,6b-hexahydro-1H-2,6a-diazacyclobut[cd]indene-6-carboxylicacid trifluoroacetate]", "values": [{"measurement": "MIC C. freundii 1982 (D)", "setting": "[1]; [3]", "value": 2, "unit": "µg/mL"}, {"measurement": "MIC E. coli 1346 (E)", "setting": "[2]; Table 4", "value": 8, "unit": "µg/mL"}]}, {"smiles": "NC(=O)CN1C[C@H]2CC(COC(N)=O)=C(C(=O)O)N3C(=O)[C@@H]1[C@@H]23", "note": "[59(d), (1aS,3aR,6bR)-2-Carbamoylmethyl-5-carbamoyloxymethyl-1-oxo-1a,2,3,3a,4,6b-hexahydro-1H-2,6a-diazacyclobut[cd]indene-6-carboxylic acid sodium salt]", "values": [{"measurement": "MIC C. freundii 1982 (D)", "setting": "[1]; [3]", "value": 1, "unit": "µg/mL"}, {"measurement": "MIC E. coli 1346 (E)", "setting": "[2]; Table 4", "value": 8, "unit": "µg/mL"}]}, {"smiles": "Nc1nnc(SCC2=C(C(=O)O)N3C(=O)[C@@H]4[C@H]3[C@H](C2)CN4C(=O)Nc2ccc(O)cc2)s1", "note": "[18(d), (1aS,3aR,6bR)-5-(5-Amino-1,3,4-thiadiazol-2-ylsulphanylmethyl)-2-(4-hydroxy-phenylcarbamoyl)-1-oxo-1a,2,3,3a,4,6b-hexahydro-1H-2,6a-diazacyclobut[cd]indene-6-carboxylic acid sodium salt]", "values": [{"measurement": "MIC C. freundii 1982 (D)", "setting": "[1]; Table 5, particularly preferred products, 1:4 combination with ceftriaxone", "value": "≤ 0.06", "unit": "µg/mL"}, {"measurement": "MIC E. coli 1346 (E)", "setting": "[2]; Table 5, particularly preferred products", "value": 32, "unit": "µg/mL"}]}, {"smiles": "O=C(O)C1=C(Sc2ccncc2)C[C@@H]2CN[C@@H]3C(=O)N1[C@H]23", "note": "[Example 2(d), (1aS,3aR,6bR)-1-oxo-5-(pyridin-4-ylsulphanyl)-1a,2,3,3a,4,6b-hexahydro-1H-2,6a-diazacyclobut[cd]indene-6-carboxylic acid trifluoroacetate]", "values": [{"measurement": "MIC C. freundii 1982 (D)", "setting": "[1]; [3]", "value": 64, "unit": "µg/mL"}, {"measurement": "MIC E. coli 1346 (E)", "setting": "[2]; Table 4", "value": "> 32", "unit": "µg/mL"}]}, {"smiles": "O=C(O)C1=C(CSc2ccncc2)S[C@@H]2CN[C@@H]3C(=O)N1[C@@H]32", "note": "[40(f), (1aS,3aR,6bS)-1-Oxo-5-(pyridin-4-ylsulphanylmethyl)-4-thia-1,1a,2,3,3a,6b-hexahydro-2,6a-diazacyclobut[cd]indene-6-carboxylic acid]", "values": [{"measurement": "MIC C. freundii 1982 (D)", "setting": "[1]; [3]", "value": 2, "unit": "µg/mL"}, {"measurement": "MIC E. coli 1346 (E)", "setting": "[2]; Table 4", "value": 32, "unit": "µg/mL"}]}, {"smiles": "Cc1nnc(SCC2=C(C(=O)O)N3C(=O)[C@@H]4[C@H]3[C@H](C2)CN4C(=O)Nc2ccc(O)cc2)s1", "note": "[Example 64, (1aS,3aR,6bR)-2-(4-Hydroxy-phenylcarbamoyl)-5-(5-methyl-1,3,4-thiadiazol-2-ylsulphanylmethyl)-1-oxo-1a,2,3,3a,4,6b-hexahydro-1H-2,6a-diazacyclobut[cd]indene-6-carboxylic acid sodium salt]", "values": [{"measurement": "MIC C. freundii 1982 (D)", "setting": "[1]; [3]", "value": 0.5, "unit": "µg/mL"}, {"measurement": "MIC E. coli 1346 (E)", "setting": "[2]; Table 4", "value": "> 32", "unit": "µg/mL"}]}, {"smiles": "O=C(O)C1=C(CSc2nc(-c3cccnc3)cs2)C[C@@H]2CN(C(=O)C(F)(F)F)[C@@H]3C(=O)N1[C@H]23", "note": "[67(b), (1aS,3aR,6bR)-1-Oxo-5-(4-pyridin-3-yl-thiazol-2-ylsulphanylmethyl)-2-trifluoroacetyl-la,2,3,3a,4,6b-hexahydro-1H-2,6a-diazacyclobut[cd]indene-6-carboxylic acid sodium salt]", "values": [{"measurement": "MIC C. freundii 1982 (D)", "setting": "[1]; [3]", "value": 8, "unit": "µg/mL"}, {"measurement": "MIC E. coli 1346 (E)", "setting": "[2]; Table 4", "value": 4, "unit": "µg/mL"}]}, {"smiles": "N#C/C=C\\C1=C(C(=O)O)N2C(=O)[C@@H]3[C@H]2[C@H](C1)CN3C(=O)Nc1ccc(O)cc1", "note": "[49(a), (Z) -(1aS,3aR,6bR)-5-(2-Cyanovinyl)-2-(4-hydroxyphenylcarbamoyl)-1-oxo-1a,2,3,3a,4,6b-hexahydro-1H-2,6a-diazacyclobut[cd]indene-6-carboxylic acid sodium salt]", "values": [{"measurement": "MIC C. freundii 1982 (D)", "setting": "[1]; [3]", "value": 2, "unit": "µg/mL"}, {"measurement": "MIC E. coli 1346 (E)", "setting": "[2]; Table 4", "value": "> 32", "unit": "µg/mL"}]}, {"smiles": "O=C(O)C1=C(CSc2ccncc2)C[C@@H]2CN(C(=O)Nc3ccc(O)cc3)[C@@H]3C(=O)N1[C@H]23", "note": "[18(j), (1aS,3aR,6bR)-2-(4-Hydroxy-phenylcarbamoyl)-1-oxo-5-(pyridin-4-ylsulphanylmethyl)-1a,2,3,3a,4,6b-hexahydro-1H-2,6a-diazacyclobut[cd]indene-6-carboxylic acid sodium salt]", "values": [{"measurement": "MIC C. freundii 1982 (D)", "setting": "[1]; [3]", "value": 0.5, "unit": "µg/mL"}, {"measurement": "MIC E. coli 1346 (E)", "setting": "[2]; Table 4", "value": "> 32", "unit": "µg/mL"}]}, {"smiles": "CC(=O)N1C[C@H]2SC(CSc3ccncc3)=C(C(=O)O)N3C(=O)[C@@H]1[C@@H]23", "note": "[42(b), (1aS,3aR,6bS)-2-Acetyl-1-oxo-5-(pyridin-4-ylsulphanylmethyl)-4-thia-1,1a,2,3,3a,6b-hexahydro-2,6a-diazacyclobut[cd]indene-6-carboxylic acid sodium salt]", "values": [{"measurement": "MIC C. freundii 1982 (D)", "setting": "[1]; [3]", "value": 2, "unit": "µg/mL"}, {"measurement": "MIC E. coli 1346 (E)", "setting": "[2]; Table 4", "value": 0.5, "unit": "µg/mL"}]}, {"smiles": "O=C(NCC(F)(F)F)OCC1=C(C(=O)O)N2C(=O)[C@H]3NC[C@@H](C1)[C@H]32", "note": "[Example 91, (1aS,3aR,6bR)-1-Oxo-5-(2,2,2-trifluoroethylcarbamoyloxymethyl)-1a,2,3,3a,4,6b-hexahydro-1H-2,6a-diazacyclobut[cd]indene-6-carboxylic acid trifluoroacetate]", "values": [{"measurement": "MIC C. freundii 1982 (D)", "setting": "[1]; [3]", "value": 2, "unit": "µg/mL"}, {"measurement": "MIC E. coli 1346 (E)", "setting": "[2]; Table 4", "value": 4, "unit": "µg/mL"}]}, {"smiles": "Cn1nnnc1SCC1=C(C(=O)O)N2C(=O)[C@@H]3[C@H]2[C@@H](CN3C(=O)CSc2nnc(N)s2)S1", "note": "[42(c), (1aS,3aR,6bS)-2-(2-Amino-1,3,4-thiadiazol-5-ylsulphanylacetyl)-5-(1-methyl-1H-tetrazol-5-ylsulphanylmethyl)-1-oxo-4-thia-1,1a,2,3,3a,6b-hexahydro-2,6a-diazacyclobut[cd]indene-6-carboxylic acid sodium salt]", "values": [{"measurement": "MIC C. freundii 1982 (D)", "setting": "[1]; [3]", "value": 0.2, "unit": "µg/mL"}, {"measurement": "MIC E. coli 1346 (E)", "setting": "[2]; Table 4", "value": 16, "unit": "µg/mL"}]}, {"smiles": "CC(=O)N1C[C@H]2CC(CSc3nc[nH]n3)=C(C(=O)O)N3C(=O)[C@@H]1[C@@H]23", "note": "[76(a), (1aS,3aR,6bR)-2-Acetyl-1-oxo-5-(1H-1,2,4-triazol-3-ylsulphanylmethyl)-1a,2,3,3a,4,6b-hexahydro-1H-2,6a-diazacyclobut[cd]indene-6-carboxylic acid sodium salt]", "values": [{"measurement": "MIC C. freundii 1982 (D)", "setting": "[1]; [3]", "value": 1, "unit": "µg/mL"}, {"measurement": "MIC E. coli 1346 (E)", "setting": "[2]; Table 4", "value": 2, "unit": "µg/mL"}]}, {"smiles": "CO/N=C(\\C(=O)N1C[C@H]2CC(Sc3nnnn3C)=C(C(=O)O)N3C(=O)[C@@H]1[C@@H]23)c1csc(N)n1", "note": "[Example 7, (Z)-(1aS,3aR,6bR)-2-[(2-Amino-thiazol-4-yl)-methoxyiminoacetyl]-1-oxo-5-(1-methyl-1H-tetrazol-5-ylsulphanyl)-1a,2,3,3a,4,6b-hexahydro-1H-2,6a-diazacyclobut[cd]indene-6-carboxylic acid sodium salt]", "values": [{"measurement": "MIC C. freundii 1982", "setting": "[1]; Table 2, 1:4 combination of ceftriaxone with the compound", "value": 16, "unit": "µg/mL"}, {"measurement": "MIC E. coli 1346", "setting": "[2]; Table 3, liquid medium", "value": 64, "unit": "µg/mL"}]}, {"smiles": "O=C(O)C1=C(Sc2ccncc2)C[C@@H]2CN(C(=O)C(F)(F)F)[C@@H]3C(=O)N1[C@H]23", "note": "[3(ai), (1aS,3aR,6bR)-1-Oxo-5-(pyridin-4-ylsulphanyl)-2-trifluoracetyl-1a,2,3,3a,4,6b-hexahydro-1H-2,6a-diazacyclobut[cd]indene-6-carboxylic acid sodium salt]", "values": [{"measurement": "MIC C. freundii 1982 (D)", "setting": "[1]; [3]", "value": 32, "unit": "µg/mL"}, {"measurement": "MIC E. coli 1346 (E)", "setting": "[2]; Table 4", "value": "> 32", "unit": "µg/mL"}]}]}
